# US12667602B2, “Composition for preventing, treating or alleviating diabetes, comprising LGI3-derived peptide as an active ingredient” (CHUNG-ANG UNIVERSITY INDUSTRY-ACADEMIC COOPERATION …, priority 2019, dated 2026)
# Residues, ends and D or L forms follow the SMILES beside them.
# Test: Solubility in water
# Type: physicochemical
row,SMILES,solubility [µg/mL]
1,CC(C)C[C@H](NC(=O)[C@H](C)NC(=O)[C@H](CCC(N)=O)NC(=O)[C@H](Cc1c[nH]cn1)NC(=O)[C@H](CO)NC(=O)[C@H](Cc1ccc(O)cc1)NC(=O)[C@H](Cc1ccccc1)NC(=O)CNC(=O)[C@H](CC(N)=O)NC(=O)[C@@H](N)CCC(N)=O)C(=O)N[C@@H](Cc1c[nH]cn1)C(=O)N[C@@H](C)C(=O)N[C@@H](Cc1c[nH]c2ccccc12)C(=O)N[C@@H](Cc1c[nH]cn1)C(=O)N[C@@H](CCCNC(=N)N)C(=O)O [P25] (H-QNGFYSHQALHAWHR-OH; N-terminus and C-terminus assumed),10000
2,CC(C)C[C@H](NC(=O)[C@H](CCC(=O)O)NC(=O)[C@H](CCC(N)=O)NC(=O)[C@H](Cc1ccccc1)NC(=O)[C@H](CCCNC(=N)N)NC(=O)[C@@H](NC(=O)[C@H](Cc1ccccc1)NC(=O)[C@H](CCCCN)NC(=O)[C@H](CCC(N)=O)NC(=O)[C@H](CCCNC(=N)N)NC(=O)CNC(=O)[C@H](CCC(=O)O)NC(=O)[C@@H](N)CC(=O)O)C(C)C)C(=O)N[C@@H](C)C(=O)N[C@H](C(=O)O)C(C)C [P34] (H-DEGRQKFVRFQELAV-OH; N-terminus and C-terminus assumed),1000
